This note sets out measurements from patent publication US11897898B2, “Pyridine macrocycle compounds as ASK1 inhibiting agents” (BIOGEN MA INC., priority 2018, dated 2024).

One assay has as its target T1, ASK1/MAP3K5 (Homo sapiens, UniProt Q99683).
T1 construct: purchased Reaction Biology Corp. (Malvern, Pa.)
T1 sequence (Q99683 1-1374): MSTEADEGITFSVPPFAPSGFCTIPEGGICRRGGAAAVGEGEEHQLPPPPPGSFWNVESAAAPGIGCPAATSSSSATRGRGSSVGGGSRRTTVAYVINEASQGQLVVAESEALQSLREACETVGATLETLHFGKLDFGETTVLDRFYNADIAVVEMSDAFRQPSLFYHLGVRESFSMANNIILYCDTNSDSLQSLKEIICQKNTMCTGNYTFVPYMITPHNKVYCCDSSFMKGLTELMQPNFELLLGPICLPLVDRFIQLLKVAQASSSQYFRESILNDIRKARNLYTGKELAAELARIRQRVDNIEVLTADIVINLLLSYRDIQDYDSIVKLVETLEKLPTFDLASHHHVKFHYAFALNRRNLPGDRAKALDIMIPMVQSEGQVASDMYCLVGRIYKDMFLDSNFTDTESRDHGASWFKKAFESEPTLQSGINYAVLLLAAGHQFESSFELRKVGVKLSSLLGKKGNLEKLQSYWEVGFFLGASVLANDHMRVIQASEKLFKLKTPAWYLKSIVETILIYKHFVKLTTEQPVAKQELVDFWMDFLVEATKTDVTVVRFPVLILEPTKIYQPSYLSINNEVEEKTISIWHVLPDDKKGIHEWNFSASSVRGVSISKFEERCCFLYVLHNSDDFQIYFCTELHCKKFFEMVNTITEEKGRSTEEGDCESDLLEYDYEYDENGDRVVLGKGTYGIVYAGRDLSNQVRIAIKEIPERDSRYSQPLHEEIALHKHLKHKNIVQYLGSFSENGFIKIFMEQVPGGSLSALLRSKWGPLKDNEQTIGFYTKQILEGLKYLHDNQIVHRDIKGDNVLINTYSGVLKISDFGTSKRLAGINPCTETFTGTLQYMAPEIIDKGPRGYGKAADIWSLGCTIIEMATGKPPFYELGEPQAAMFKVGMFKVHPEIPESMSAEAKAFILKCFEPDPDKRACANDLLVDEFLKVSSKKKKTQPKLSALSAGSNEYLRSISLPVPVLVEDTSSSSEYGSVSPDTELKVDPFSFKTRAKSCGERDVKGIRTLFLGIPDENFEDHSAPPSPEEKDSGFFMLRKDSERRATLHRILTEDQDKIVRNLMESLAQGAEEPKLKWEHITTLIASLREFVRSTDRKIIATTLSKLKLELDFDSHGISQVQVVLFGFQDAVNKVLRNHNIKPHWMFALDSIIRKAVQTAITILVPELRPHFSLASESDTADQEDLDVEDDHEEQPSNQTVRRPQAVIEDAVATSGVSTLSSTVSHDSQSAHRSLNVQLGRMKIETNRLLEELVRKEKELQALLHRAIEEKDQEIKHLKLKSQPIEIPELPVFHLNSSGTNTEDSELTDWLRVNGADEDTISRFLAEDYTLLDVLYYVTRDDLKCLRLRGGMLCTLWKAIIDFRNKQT
Briefly: ASK1 enzyme assay (ASK1/MAP3K5 assay by Reaction Biology Corp., 33P-ATP filter-binding). Type of assay: biochemical. The settings on record: 20 μM myelin basic protein and 10 μM ATP; class symbols. As for the experimental part: The protein kinase inhibitory activity of the compounds described herein were tested using the ASK1/MAP3K5 assay by Reaction Biology Corp. (Malvern, Pa.). The assay procedure follows (and is also available on the Reaction Biology Corp. website). • Base Reaction Buffer: 20 mM Hepes (pH 7.5), 10 mM MgCl2, 1 mM EGTA, • 0.02% Brij35, 0.02 mg/mL BSA, 0.1 mM Na3VO4, 2 mM DTT, 1% DMSO; • Substrate: 20 μM of myelin basic protein (MBP) and 10 μM ATP; • Protein kinase: ASK1/MAP3K5. • Reaction Procedure: • 1. Prepare indicated substrate in freshly prepared Base Reaction Buffer. • 2. Deliver any required cofactors to the substrate solution. • 3. Deliver indicated kinase into the substrate solution and gently mix. • 4. Deliver compounds in DMSO into the kinase reaction mixture by Acoustic; technology (Echo550; nanoliter range), incubate for 20 minutes at room temperature. • 5. Deliver ^33P-ATP (specific activity 10 μCi/μL) into the reaction mixture to initiate the reaction. • 6. Incubate kinase reaction for 2 hours at room temperature. • 7. Reactions are spotted onto P81 ion exchange paper. • 8. Detect kinase activity by filter-binding method.

Assay [1] addresses T2, ASK1 T838 auto phosphorylation (Homo sapiens, UniProt Q99683).
T2 construct: ASK1-V5 tagged full length plasmid; expressed in transfected cells; host or cells: HEK-293T
T2 sequence (Q99683 1-1374): T1 sequence (Q99683 1-1374)
Briefly: ASK1 (AUTO PHOS T838) assay in HEK-293T cells, MSD format. Type of assay: cell-based. To be noted: HEK-293T cells transfected with ASK1-V5, 1 hr compound incubation. The procedure:
ASK1 T838 auto phosphorylation was measured in HEK-293T cells using MSD assay format. HEK 293T cells were seeded in 15 cm plates at a density of 18 million cells and 20 mL DMEM with 10% FBS, Pen/Strep media. The plates were incubated at 37° C. overnight. Media on plates was changed to OPTI-MEM, serum free media and cells were transfected with 9 μg of ASK1-V5 tagged full length plasmid using Lipofectamine 2000 (Invitrogen) and the plates were incubated at 37° C. overnight. Cells were trypsinized, counted on Nexcellometer and plated into 96 well tissue culture plates with 100,000 cells/well and 200 μL media. Cells were incubated for 4 hr at 37° C. then ASK1 compounds were added using a HP 300e. Compounds were tested at 20 μM with 3 fold, 10 point dilution points then incubated for 1 hr at 37° C. A lysis buffer (Cell Signaling) was prepared with protease and phosphatase inhibitor and maintained at 4° C. until use. Media from cells was discarded and 120 μL of cold lysis buffer was added to the cells, the plate was shaken 4° C. for 1 hr. Lysate was mixed using Apricot liquid handler; aspirating up and down 16 times at high speed using 50 μL volume. 50 μL of cell lysates were transferred to a pre-coated MSD plates containing mouse anti-V5 antibody (1:500 dilution) and washed 3× with MSD wash buffer (TBST) and blocked with a 3% BSA solution. Plates were then incubated on a plate shaker overnight at 4° C. Plates were washed 3× with MSD wash buffer and 50 μL of rabbit anti-pASK1 T838 antibody was added to the wells and incubated for 2 hr at room temperature on a plate shaker. Plates were then washed and 50 μL of goat anti-rabbit sulfa-tag (1:500 dilution) was added to wells, and incubated for 1 hr at room temperature on a plate shaker. Plates were washed 3× and 150 μL of 2×MSD Read buffer was added to wells. Plates were immediately read on a MSD Instrument Reader where chemoluminecense signal was measured. Data was analyzed using Graph Pad or Genedata, the data was normalized and plotted, % activity versus log of compound concentration. The IC50 values were obtained from a 4 parameter fit.

Some results are limits rather than exact numbers.

Take `C[C@H]1CCCOc2ncc(-c3ccnnc3)cc2C(=O)Nc2cccc(n2)-c2nncn21` [Compound 23, (S)-10-Methyl-5^5-(pyridazin-4-yl)-1^4H-6-oxa-3-aza-2(2,6),5(3,2)-dipyridina-1(3,4)-triazolacyclodecaphan-4-one]: the IC50 (at ASK1/MAP3K5; in assay [1] (class symbols)) was at most 0.1 µM each time. Consider `Cc1cn(-c2cnc3c(c2)C(=O)Nc2cccc(n2)-c2nncn2[C@@H](C)CCCO3)cn1` (single isomer, unassigned) [Compound 30], for which the IC50 (on ASK1/MAP3K5; in assay [1] (class symbols)) was at most 0.1 µM throughout.

Take `C[C@@H]1CCCOc2ncc(Br)cc2C(=O)Nc2cccc(n2)-c2nncn21` (single isomer, unassigned) [Compound 2]: the IC50 at ASK1/MAP3K5 is 1 to 10 µM; in assay [1], at least 10 µM. For `C[C@H]1CCCOc2ncc(C(C)(C)O)cc2C(=O)Nc2cccc(n2)-c2nncn21` [Compound 39, (S)-5^5-(2-Hydroxypropan-2-yl)-10-methyl-1^4H-6-oxa-3-aza-2(2,6),5(3,2)-dipyridina-1(3,4)triazolacyclodecaphan-4-one], the figures for the IC50 (at ASK1/MAP3K5; in assay [1] (class symbols)) were at most 0.1 µM and 0.1 to 1 µM, respectively. In the same order, the values of `COC(C)(C)c1cnc2c(c1)C(=O)Nc1cccc(n1)-c1nncn1[C@@H](C)CCCO2` [Compound 40, (S)-5^5-(2-Methoxypropan-2-yl)-10-methyl-1^4H-6-oxa-3-aza-2(2,6),5(3,2)-dipyridina-1(3,4)-triazolacyclodecaphan-4-one] are at most 0.1 µM and 0.1 to 1 µM.

On to `C[C@H]1CCCOc2ncc(-c3cnccn3)cc2C(=O)Nc2cccc(n2)-c2nncn21` [Compound 22, (S)-10-Methyl-5^5-(pyrazin-2-yl)-1^4H-6-oxa-3-aza-2(2,6),5(3,2)-dipyridina-1(3,4)-triazolacyclodecaphan-4-one], for which the IC50 (on ASK1/MAP3K5; in assay [1] (class symbols)) was at most 0.1 µM in each case.

For the molecule `C[C@@H]1CN(c2cnc3c(c2)C(=O)Nc2cccc(n2)-c2nncn2[C@@H](C)CCCO3)CCN1C` (single isomer, unassigned) [Compound 12], the IC50 (on ASK1/MAP3K5; in assay [1] (class symbols)) was at most 0.1 µM each time. Turning to `C[C@H]1CCCOc2ncc(-n3ccc(C(F)(F)F)n3)cc2C(=O)Nc2cccc(n2)-c2nncn21` [Compound 29, (S)-10-Methyl-5^5-(3-(trifluoromethyl)-1H-pyrazol-1-yl)-1^4H-6-oxa-3-aza-2(2,6),5(3,2)-dipyridina-1(3,4)-triazolacyclodecaphan-4-one], in assay [1] (class symbols), the IC50 was 0.1 to 1 µM. The same measure, in the same setting: then `C[C@H]1CCCOc2ncc(C#CC3CC3)cc2C(=O)Nc2cccc(n2)-c2nncn21` [Compound 35, (S)-5^5-(Cyclopropylethynyl)-10-methyl-1^4H-6-oxa-3-aza-2(2,6),5(3,2)-dipyridina-1(3,4)-triazolacyclodecaphan-4-one], with 0.1 to 1 µM; and `C[C@H]1CCCOc2ncc(C3CC3)cc2C(=O)Nc2cccc(n2)-c2nncn21` [Compound 36, (S)-5^5-Cyclopropyl-10-methyl-1^4H-6-oxa-3-aza-2(2,6),5(3,2)-dipyridina-1(3,4)-triazolacyclodecaphan-4-one], with 0.1 to 1 µM. The same measure, in the same setting: then `C#Cc1cnc2c(c1)C(=O)Nc1cccc(n1)-c1nncn1[C@@H](C)CCCO2` [Compound 34, (S)-5^5-Ethynyl-10-methyl-1^4H-6-oxa-3-aza-2(2,6),5(3,2)-dipyridina-1(3,4)-triazolacyclodecaphan-4-one], with 0.1 to 1 µM; and `C[C@@H]1CCCOc2ncc(-c3ccncc3)cc2C(=O)Nc2cccc(n2)-c2nncn21` [Compound 18, (R)-10-Methyl-5^5-(pyridin-4-yl)-1^4H-6-oxa-3-aza-2(2,6),5(3,2)-dipyridina-1(3,4)-triazolacyclodecaphan-4-one], with 1 to 10 µM. The same measure, in the same setting: then `C[C@@H]1CCCOc2ncc(N3CCOCC3)cc2C(=O)Nc2cccc(n2)-c2nncn21` [Compound 6, (R)-10-Methyl-5^5-morpholino-1^4H-6-oxa-3-aza-2(2,6),5(3,2)-dipyridina-1(3,4)-triazolacyclodecaphan-4-one], with 1 to 10 µM. In turn, `C[C@H]1CCCOc2ncc(-c3cncnc3)cc2C(=O)Nc2cccc(n2)-c2nncn21` [Compound 21, (S)-10-Methyl-5^5-(pyrimidin-5-yl)-1^4H-6-oxa-3-aza-2(2,6),5(3,2)-dipyridina-1(3,4)-triazolacyclodecaphan-4-one] returned an IC50 on ASK1/MAP3K5 of at most 0.1 µM. `C[C@H]1CCCOc2ncc(-c3cnn(C)c3)cc2C(=O)Nc2cccc(n2)-c2nncn21` [Compound 26, (S)-10-Methyl-5^5-(1-methyl-1H-pyrazol-4-yl)-1^4H-6-oxa-3-aza-2(2,6),5(3,2)-dipyridina-1(3,4)-triazolacyclodecaphan-4-one] returned an IC50 in assay [1] (class symbols) of at most 0.1 µM.

Regarding `C[C@H]1CCCOc2ncc(C3CCN(C)CC3)cc2C(=O)Nc2cccc(n2)-c2nncn21` [Compound 16, (S)-10-Methyl-5^5-(1-methylpiperidin-4-yl)-1^4H-6-oxa-3-aza-2(2,6),5(3,2)-dipyridina-1(3,4)-triazolacyclodecaphan-4-one], in assay [1] (class symbols), the IC50 was at most 0.1 µM.

`Cc1cnn(-c2cnc3c(c2)C(=O)Nc2cccc(n2)-c2nncn2[C@@H](C)CCCO3)c1` [Compound 27, (S)-10-Methyl-5^5-(4-methyl-1H-pyrazol-1-yl)-1^4H-6-oxa-3-aza-2(2,6),5(3,2)-dipyridina-1(3,4)-triazolacyclodecaphan-4-one] had an IC50 in assay [1] (class symbols) of 0.1 to 1 µM. Regarding `C[C@H]1CCCOc2ncc(S(C)(=O)=O)cc2C(=O)Nc2cccc(n2)-c2nncn21` [Compound 43, (S)-10-Methyl-5^5-(methylsulfonyl)-1^4H-6-oxa-3-aza-2(2,6),5(3,2)-dipyridina-1(3,4)-triazolacyclodecaphan-4-one], the IC50 in assay [1] (class symbols) fell in the range of 0.1 to 1 µM.
